This note sets out measurements from US20230002346A1, “NEW COMPOUNDS AND METHODS” (BenevolentAl Bio Limited, priority 2019, published 2023).

The structures appear in SMILES notation. Converted amounts (≈) assume the structure as drawn.

A short description of series [1]: Brain to plasma (B:P) ratio in rat. The class given is in vivo, Sprague Dawley Rats. Particulars: male, Sprague Dawley, po, p.o. 3.0 mg/kg, 30% HPBC in water; for Kp: timepoints averaged 0.5-4 h. The procedure:
Male Sprague Dawley Rats 300-350 g (Charles River, UK) were group housed, n=3, under a 12 h light/dark cycle with food and water available ad libitum. At 17:00 on the day prior to dosing all food was removed. On the day of dosing animals were weighed, tail marked and dosed via oral gavage with compound at 3 mg/kg in a volume of 5 mL/kg. Animals were culled at 30 min, 1 h and 4 h post dose via intra-peritoneal administration of pentobarbital. Post mortem blood was withdrawn via cardiac puncture, and briefly stored in K2 EDTA blood tubes on ice before being spun at 14,000 g for 4 min at 4° C. Plasma was withdrawn into a 96 well plate, placed on dry ice and stored at −80° C. Brains were quickly dissected and placed on dry ice before storage at −80° C. Bioanalysis of plasma and brain samples is performed as detailed below. Methods were prepared with guidance from industry standard documents.^i,ii […] Calibration lines are prepared in control male Sprague-Dawley Rat plasma at known concentrations in the range of 1-10000 ng/mL by spiking 2.5 μL of calibration spiking solution into 25 μL control plasma. Experimental samples are thawed to RT and 25 μL aliquots are extracted alongside the calibration lines using protein precipitation (agitation for at least 5 min at RT with 400 μL of MeCN containing 25 ng/mL tolbutamide as an internal standard). Protein precipitates are separated from the extracted test compound by centrifugation at 4000 rpm for 5 min, 4° C. […] Samples are analysed by UPLC-MS/MS on either an API6500 QTrap or Waters 30 TQS mass spectrometer using previously optimised analytical MRM (multiple reaction monitoring) methods, specific to the test compound. The concentration of test compound in isolated samples is determined following analysis of the samples against the two replicates of the calibration line, injected before and after the sample set with an appropriate regression and weighting used. Only samples within 20% of the expected test concentration are included in the calibration line and any samples that fall outside of the limits of the calibration line will be deemed to be less than or above the limit of quantification (LLoQ/ALoQ). […] Calibration lines are prepared in control male Sprague-Dawley Rat brain homogenate at known concentrations in the range of 3-30000 ng/g by spiking 2.5 μL of calibration spiking solution into 25 μL control homogenate. To prepare control and experimental brain homogenates, brains are thawed, weighed and a volume of diluent added (water) in the ratio of 2 mL per gram of brain. Homogenisation of brains is performed by bead-beater homogenisation using Precellys Evolution and CK14 7 mL small ceramic bead homogenisation tubes. Aliquots of 25 μL experimental sample are extracted alongside the calibration lines using protein precipitation (agitation for at least 5 min at RT with 400 μL of MeCN containing 25 ng/mL tolbutamide as an internal standard). Protein precipitates are separated from the extracted test compound by centrifugation at 4000 rpm for 5 min, 4° C. […] Samples are analysed by UPLC-MS/MS on either an API6500 QTrap or Waters TQS mass spectrometer using previously optimised analytical MRM (multiple reaction monitoring) methods, specific to the test compound. The concentration of test compound in isolated samples is determined following analysis of the samples against the two replicates of the calibration line, injected before and after the sample set with an appropriate regression and weighting used. Only samples within 20% of the expected test concentration are included in the calibration line and any samples that fall outside of the limits of the calibration line will be deemed to be less than or above the limit of quantification (LLoQ/ALoQ). Total brain to plasma (B:P) ratios were calculated by dividing the concentration in the brain by the concentration in plasma for each timepoint. The mean brain to plasma ratio is calculated by averaging these brain to plasma ratios across certain timepoints. […]

A further series addresses T1, hERG channel (Homo sapiens, UniProt Q12809).
T1 construct: expressed in transfected cells
Put plainly: hERG assay (QPatch automated patch clamp, CHO cells). Type of series: cell-based. Particulars: CHO cells expressing hERG, whole-cell patch clamp, 0.003 μM to 10 μM. The text has this:
The human ether-a-go-go related gene (hERG) potassium channel (Kv11.1) contributes to human cardiac action potential repolarisation. Inhibition of hERG channels can prolong the human cardiac action potential, resulting in QTc prolongation and potentially lethal arrhythmias (e.g. Torsade de Pointes).
Test samples were screened against the hERG channel on a QPatch 48 gigaseal automated patch clamp platform, using a Chinese Hamster Ovary (CHO) cell line stably expressing the human ether-á-go-go related gene, which encodes the hERG channel. All recordings were made in the conventional whole-cell configuration and performed at RT ([…]) using standard single hole chips (Rchip 1.5-4M0). Series resistance (4-15Mc) was compensated by >80%. Currents were elicited from a holding potential of −90 mV using the industry standard “^+40/−40” voltage protocol, which was applied at a stimulus frequency of 0.1 Hz. On achieving the whole-cell configuration, vehicle (0.1% DMSO v/v in external recording solution) was applied to each cell in two bolus additions with a 2 min recording period between each addition. Following the vehicle period, eight increasing concentrations of test sample were applied from 0.003 μM to 10 μM as a single bolus addition per test concentration, and the effects on hERG tail current amplitude measured during the 2 min recording period. Each eight-point concentration-response curve was constructed using cumulative single sample additions of each concentration to the same cell. The positive control used in this study was verapamil hydrochloride (Tocris, Cat #0654, Batch #5A/61673) and prepared to a stock concentration of 10 mM in 100% DMSO and kept as frozen aliquots.
Data analysis: All cells passing the QC parameters (i.e. >200 pA outward current, membrane resistance and rundown) are selected as ‘passed QC’ using the QPatch software, which then calculates the mean peak current for the last three sweeps at the end of each concentration application period from the cursor positions defined. Percent inhibition is calculated for each test concentration application period as the reduction in mean cursor value (peak current or charge) relative to the cursor value measured at the end of the control (i.e. vehicle) period. The percent inhibition values from each cell are used to construct concentration-response curves employing a four parametric logistic fit with 0 and 100% inhibition levels fixed at very low and very high concentrations, respectively, and a free Hill slope factor. The IC50 (50% inhibitory concentration) and Hill coefficient are then determined, but only data from cells with Hill slopes within 0.5>nH<2.0 are included. The IC50 data reported below represents the mean (and S.D.) of at least three separate cells (N≥3). […] Compounds of the invention show reduced hERG inhibitory activity compared to the reference examples.
For orientation: Block of hERG is tested as a sign of cardiac risk.

Series [2] is described as follows: Kinetic aqueous solubility assay. The class given is physicochemical. Particulars: aqueous buffer, kinetic from dmso stock, 0.05M potassium phosphate buffer pH 7.4, 250 μM spike, RT. How it is done: Using a 10 mM stock solution of test compound in 100% DMSO, test compounds were spiked into 0.05M potassium phosphate buffer (pH 7.4) at a final concentration of 250 μM. Samples in buffer (n=2 aqueous samples, in 96-well plates) were allowed to equilibrate at RT on an orbital shaker for 30 min (300 rpm) to induce precipitation of test compounds. The appearance of each sample was determined by visual examination and noted (clear, cloudy, precipitate observed etc.). […] The concentration of compound in phosphate buffer filtrate was determined by comparing the UV absorbance peak area of each replicate against that of the calibration standards. […] Compounds of the invention have much improved solubility compared to the reference examples.

A short description of series [3]: Rat PK profile (bioavailability, clearance, half-life). Type of series: in vivo. Particulars: male, Sprague Dawley, plasma, i.v. dose 1 mg/kg; for clearance / half-life: iv; for half-life: read-out: T½ (converted); for bioavailability: po, p.o. dose 3 mg/kg. How it is done:
Male Sprague Dawley Rats 300-350 g (Charles River, UK) were group housed, n=3, under a 12 h light/dark cycle with food and water available ad libitum. At 17:00 on the day prior to dosing all food was removed. On the day of dosing animals were weighed, tail marked and dosed via oral gavage with compound at 3 mg/kg in a volume of 5 mL/kg. Animals were culled at 30 min, 1 h and 4 h post dose via intra-peritoneal administration of pentobarbital. Post mortem blood was withdrawn via cardiac puncture, and briefly stored in K2 EDTA blood tubes on ice before being spun at 14,000 g for 4 min at 4° C. Plasma was withdrawn into a 96 well plate, placed on dry ice and stored at −80° C. Brains were quickly dissected and placed on dry ice before storage at −80° C. Bioanalysis of plasma and brain samples is performed as detailed below. Methods were prepared with guidance from industry standard documents.^i,ii
A 10 mM DMSO stock is used to prepare spiking solutions of test compound in the range of 10-100,000 ng/mL in diluent (MeCN:water, 1;1). Calibration lines are prepared in control male Sprague-Dawley Rat plasma at known concentrations in the range of 1-10000 ng/mL by spiking 2.5 μL of calibration spiking solution into 25 μL control plasma. Experimental samples are thawed to RT and 25 μL aliquots are extracted alongside the calibration lines using protein precipitation (agitation for at least 5 min at RT with 400 μL of MeCN containing 25 ng/mL tolbutamide as an internal standard). Protein precipitates are separated from the extracted test compound by centrifugation at 4000 rpm for 5 min, 4° C. The resulting supernatants are diluted in a ratio of 1:2 with a relevant diluent (e.g. 0.1% formic acid in water or 1:1 MeOH:water). Samples are analysed by UPLC-MS/MS on either an API6500 QTrap or Waters 30 TQS mass spectrometer using previously optimised analytical MRM (multiple reaction monitoring) methods, specific to the test compound. The concentration of test compound in isolated samples is determined following analysis of the samples against the two replicates of the calibration line, injected before and after the sample set with an appropriate regression and weighting used. Only samples within 20% of the expected test concentration are included in the calibration line and any samples that fall outside of the limits of the calibration line will be deemed to be less than or above the limit of quantification (LLoQ/ALoQ).
Pharmacokinetic parameters such as bioavailability (% F), clearance (CL), half-life (T½) and volume of distribution are calculated by non-compartmental analysis using Phoenix Winnonlin 64 software (build 8.0). The bioavailability was calculated from p.o. dosed rats, whereas the clearance and half-life were calculated from i.v. dosed rats. Briefly, in vivo plasma concentrations, timepoints and dose values are imported into the software in a compatible format. Plasma concentration for each animal is plotted against time, and the elimination phase identified and selected. The area under the curve for each plot is calculated using a linear trapezoidal linear interpolation from which pharmacokinetic parameters can subsequently be determined. […] Compounds of the invention have much improved clearance (CL) and half-life (T½) compared to the reference examples.

T1 sequence (Q12809 whole entry): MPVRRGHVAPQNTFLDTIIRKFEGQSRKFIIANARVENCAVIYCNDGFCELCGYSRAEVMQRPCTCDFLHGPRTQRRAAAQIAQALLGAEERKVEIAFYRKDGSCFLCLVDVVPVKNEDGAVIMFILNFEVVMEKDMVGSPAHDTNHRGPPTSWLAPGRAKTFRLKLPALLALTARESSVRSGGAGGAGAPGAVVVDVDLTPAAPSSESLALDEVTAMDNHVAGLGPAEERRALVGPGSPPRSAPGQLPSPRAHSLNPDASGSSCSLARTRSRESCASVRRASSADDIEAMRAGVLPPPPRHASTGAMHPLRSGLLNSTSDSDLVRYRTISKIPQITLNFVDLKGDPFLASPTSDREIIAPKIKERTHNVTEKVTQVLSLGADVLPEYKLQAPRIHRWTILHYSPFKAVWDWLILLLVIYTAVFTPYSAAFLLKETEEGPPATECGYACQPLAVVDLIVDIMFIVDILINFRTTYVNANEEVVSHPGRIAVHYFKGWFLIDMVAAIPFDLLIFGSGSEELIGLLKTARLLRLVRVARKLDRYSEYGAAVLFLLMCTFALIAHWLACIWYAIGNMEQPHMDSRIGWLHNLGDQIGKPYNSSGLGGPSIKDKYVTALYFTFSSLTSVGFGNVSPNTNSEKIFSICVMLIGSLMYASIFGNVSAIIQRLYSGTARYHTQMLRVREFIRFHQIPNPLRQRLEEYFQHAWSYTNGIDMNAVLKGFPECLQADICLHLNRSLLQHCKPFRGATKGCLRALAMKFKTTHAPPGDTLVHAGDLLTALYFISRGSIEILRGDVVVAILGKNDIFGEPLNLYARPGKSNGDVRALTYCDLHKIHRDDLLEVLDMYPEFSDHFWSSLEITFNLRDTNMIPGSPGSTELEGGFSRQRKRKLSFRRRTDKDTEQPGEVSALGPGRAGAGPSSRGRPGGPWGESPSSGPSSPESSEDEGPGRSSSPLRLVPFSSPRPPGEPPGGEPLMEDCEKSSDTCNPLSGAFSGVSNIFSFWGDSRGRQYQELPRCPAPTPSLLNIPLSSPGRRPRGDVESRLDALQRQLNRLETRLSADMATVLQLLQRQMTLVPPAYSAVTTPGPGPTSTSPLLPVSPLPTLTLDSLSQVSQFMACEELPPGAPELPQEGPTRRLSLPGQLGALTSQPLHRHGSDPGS

As for `COc1ccc(-n2cc(C(=O)Nc3ccc(OC(F)(F)Cl)cc3)ccc2=O)cn1` [Example 13, N-[4-[Chloro(difluoro)methoxy]phenyl]-1-(6-methoxy-3-pyridyl)-6-oxo-pyridine-3-carboxamide], the partition ratio (Kp) in series [1] was found to be 0.79.

As to `O=C(Nc1ccc(OC(F)(F)Cl)cc1)c1ccc(=O)n(-c2ccc(F)c(F)c2)c1` [Example 24, N-[4-(Chlorodifluoromethoxy)phenyl]-1-(3,4-difluorophenyl)-6-oxo-1,6-dihydropyridine-3-carboxamide], the partition ratio (Kp) in series [1] was determined as 0.68. Moreover, the IC50 against hERG channel is above 10 µM.

`COc1cccc(-n2cc(C(=O)Nc3ccc(OC(F)(F)Cl)cc3)ccc2=O)c1` [Example 35, N-[4-(Chlorodifluoromethoxy)phenyl]-1-(3-methoxyphenyl)-6-oxo-1,6-dihydropyridine-3-carboxamide]: the Kp at 1 h in series [1] (timepoint 1 h) came out at 1.11. In addition, the IC50 against hERG channel was above 10 µM.

In series [2], `O=C(Nc1ccc(OC(F)(F)Cl)cc1)c1ccc(=O)n(-c2ccc(F)cc2)c1` [Example 42, N-[4-(Chlorodifluoromethoxy)phenyl]-1-(4-fluorophenyl)-6-oxo-1,6-dihydropyridine-3-carboxamide] displayed a solubility at 30 min of 120 µM (≈ 49.1 µg/mL). The concentration ratio (Kp) in series [1] worked out at 0.98.

As for `Cc1ccc(-n2cc(C(=O)Nc3ccc(OC(F)(F)Cl)cc3)ccc2=O)cn1` [Example 65, N-[4-(Chlorodifluoromethoxy)phenyl]-6′-methyl-2-oxo-2H-[1,3′-bipyridine]-5-carboxamide], the solubility at 30 min in series [2] is 170 µM (≈ 69 µg/mL). The Kp in series [1] worked out at 0.31.

For the compound `Cn1cc(C(=O)Nc2ccc(OC(F)(F)Cl)cc2)cc(-c2cccnc2)c1=O` [Example 81, N-[4-[Chloro(difluoro)methoxy]phenyl]-1-methyl-6-oxo-5-(3-pyridyl)pyridine-3-carboxamide], in series [3], the clearance was 3 mL/min/kg, the half-life is 372 min and the bioavailability came to 102%.

For the compound `Cn1cc(C(=O)Nc2ccc(OC(F)(F)Cl)cc2)cc(-c2ccccc2)c1=O` [Example 88, N-[4-[Chloro(difluoro)methoxy]phenyl]-1-methyl-6-oxo-5-phenyl-pyridine-3-carboxamide], the partition ratio (Kp) in series [1] was 0.69.

For the compound `O=C(Nc1ccc(OC(F)(F)Cl)cc1)c1cnc(N2CC[C@@H](O)C2)c(-c2ccn[nH]2)c1` [Ref. ex. 1, N-[4-[Chloro(difluoro)methoxy]phenyl]-6-[(3R)-3-hydroxypyrrolidin-1-yl]-5-(1H-pyrazol-5-yl)pyridine-3-carboxamide, reference compound], in series [3], the clearance is 22 mL/min/kg, the half-life was 126 min and the bioavailability turned out to be 4%.

The compound `O=C(Nc1ccc(OC(F)(F)F)cc1)c1cncc(-c2cccnc2)c1` [Ref. ex. 4, 5-(3-Pyridyl)-N-[4-(trifluoromethoxy)phenyl]pyridine-3-carboxamide, reference compound] yielded a solubility at 30 min in series [2] below 5 µM. In series [3], the clearance worked out at 12 mL/min/kg, the half-life was 72 min and the bioavailability was found to be 113%. On hERG channel, this compound returned an IC50 of 4.7 µM.

As usually defined, the Kp is tissue or fluid exposure divided by exposure in the circulation. In general, IC50 refers to the concentration that gives 50% inhibition. Usually solubility stands for the concentration that dissolves in the medium under given conditions. The low end stands for a poorly soluble substance, the high end for a readily soluble substance. One may read the clearance as the volume of plasma or blood freed of the substance per unit of time.
